# According to patent US10624972B2, “Conjugates for treating diseases” (priority 2015, dated 2020):
# Entries after “also recorded” stand apart in the source; their conditions may differ. Read-outs that look alike come from different tables or passages of the source.
# Legend:
# [1] = test system: KB-CR2000 tumors; assay: Cisplatin therapy of cisplatin-resistant KB-CR2000 tumors; type: in vivo; details: high, toxic dose of cisplatin
# Description: METHOD. Human cisplatin-resistant cell line.
# [2] = test system: KB cells; assay: cells; type: cell-based, Human
# Protocol: METHOD. Inhibition of Cellular DNA Synthesis. The conjugates described herein were evaluated using an in vitro cytotoxicity assay that predicted the ability of the drug to inhibit the growth of the corresponding targeted cells, such as, but not limited to the following
# It is to be understood that the choice of cell type can be made on the basis of the susceptibility of those selected cells to the drug that forms the conjugate, and the relative expression of the cell surface receptor or target antigen. The test conjugates were conjugates of a cell surface receptor or target antigen binding compound and PBD prodrugs, poly-PBD prodrugs, and mixed PBDs, as described herein. The test cells were exposed to varying concentrations of the conjugates, and optionally also in the absence or presence of at least a 100-fold excess of the unconjugated cell surface receptor or target antigen binding compound for competition studies to assess activity as being specific to the cell surface receptor or target antigen.
# EXAMPLE. Conjugates of PBD prodrugs, poly-PBD prodrugs, and mixed PBDs described herein were active against KB cells. The activity was mediated by the folate receptor as indicated by competition experiments using co-administered folic acid. KB cells were exposed for up to 7 h at 37° C. to the indicated concentrations of folate-drug conjugate in the absence or presence of at least a 100-fold excess of folic acid. The cells were then rinsed once with fresh culture medium and incubated in fresh culture medium for 72 hours at 37° C. Cell viability was assessed using a ^3H-thymidine incorporation assay. For conjugates described herein, dose-dependent cytotoxicity was generally measurable, and in most cases, the IC50 values (concentration of drug conjugate required to reduce ^3H-thymidine incorporation into newly synthesized DNA by 50%) were in the low nanomolar range.
# [3] = Toxicity as measured by weight loss (test animal total body weight); type: in vivo, mice
# Protocol: METHOD. Toxicity as Measured by Weight Loss. The percentage weight change of the test animals was determined on selected days post-tumor inoculation (PTI), and during dosing. The results were graphed.
# [4] = test system: MDA-MB-231 tumors; assay: TNBC tumor assay (MDA-MB-231 xenograft); type: in vivo, nu/nu mice; details: 2 μmol/kg TIW for two weeks
# Description: General. […] A PR is observed where tumor volume, as defined herein, decreases from a previous high during the observation period, though regrowth may occur. A CR is observed where tumor volume, as defined herein, decreases to zero during the observation period, though regrowth may occur.
# METHOD EXAMPLE. TNBC Tumor Assay. Triple negative breast cancer (TNBC) is a subtype characterized by lack of gene expression for estrogen, progesterone and Her2/neu. TNBC is difficult to treat, and the resulting death rate in patients is reportedly disproportionately higher than for any other subtype of breast cancer. A TNBC xenograft model was generated in an analogous way to the KB and M109 models described herein by implanting MDA-MB-231 breast cancer cells in nu/nu mice. […] Test animals (5/group) were injected intravenously, generally three times a week (TIW), for 2-3 weeks with varying doses, such as with 1 μmol/kg to 5 μmol/kg, of the drug delivery conjugate or with an equivalent dose volume of PBS (control), unless otherwise indicated. Dosing solutions were prepared fresh each day in PBS and administered through the lateral tail vein of the mice.
structure (smiles),measurement,setting,value
N.N.[Cl][Pt][Cl] [cisplatin],tumor response to cisplatin therapy,[1],did not produce even a single partial response
C=C1C[C@H]2C(=O)Nc3cc(OCCCCCOc4cc(N)c(C(=O)N5CC(=C)C[C@H]5C5OCCN5C(=O)OCCSSC[C@H](NC(=O)[C@H](CC(=O)O)NC(=O)[C@H](CC(=O)O)NC(=O)[C@H](CCCNC(=N)N)NC(=O)[C@H](CC(=O)O)NC(=O)CC[C@H](NC(=O)c5ccc(NCc6cnc7nc(N)[nH]c(=O)c7n6)cc5)C(=O)O)C(=O)O)cc4OC)c(OC)cc3C(=O)N2C1 (stereo partly shown) [EC1744],IC50,[2]; 3 h,1200 pM
same,toxicity as evidenced by test animal total body weight,"[3]; KB tumor study, 2 μmol/kg TIW for two weeks",Toxicity was not observed
same,toxicity as evidenced by test animal total body weight,"[3]; MDA-MB-231 tumor study, 2 μmol/kg TIW for two weeks",Toxicity was not observed
same,MDA-MB-231 tumors compared to untreated control,[4],decreases MDA-MB-231 tumors; also recorded: decreased triple negative breast cancer (TNBC) MDA-MB-231 tumors
same,"complete response, number of test animals, MDA-MB-231 tumors",[4],5/5
same,"cure, number of test animals, MDA-MB-231 tumors",[4],4/5
C=C1C[C@H]2C=Nc3cc(OCCCCCOc4cc(N)c(C(=O)N5CC(=C)C[C@H]5C5OCCN5C(=O)OCCSSC[C@H](NC(=O)[C@H](CC(=O)O)NC(=O)[C@H](CC(=O)O)NC(=O)[C@H](CCCNC(=N)N)NC(=O)[C@H](CC(=O)O)NC(=O)CC[C@H](NC(=O)c5ccc(NCc6cnc7nc(N)[nH]c(=O)c7n6)cc5)C(=O)O)C(=O)O)cc4OC)c(OC)cc3C(=O)N2C1 (stereo partly shown) [EC1788],IC50,"[2]; KB cells, 3H-thymidine incorporation, read-out: IC50 KB Cells",180 pM
same,toxicity as evidenced by test animal total body weight,"[3]; KB tumor study, 0.2 μmol/kg TIW for two weeks",Minor toxicity was observed
same,toxicity as evidenced by test animal total body weight,"[3]; KB tumor study, 0.4 μmol/kg BIW for 2 weeks",Minor toxicity was observed
